Measured values: US20250360235A1, “RADI[…] AND METHOD FOR RADIOLABELLING” (Telix Innovations SA, priority 2024, published 2025)

Test: pH of [68Ga]PSMA-11 solution (acceptance 4.0-5.0)
Format: physicochemical
Conditions: for pH of the gallium-68 labelled PSMA-11 solution: immediately after the radiolabelling procedure
Method: (§1) 100 μl of the ascorbic acid solution (equivalent to 25 mg ascorbic acid) was taken from vial 3, and was filtered through a 5 μm filter needle. The sodium ascorbate solution was subsequently added to vail 2, and mixed thoroughly. The obtained content of vial 2 was added to vial 1, and again mixed thoroughly. To this obtained vail 1, the eluate, comprising the gallium-68, was added to obtain a gallium-68 labelled PSMA-11 solution. Optionally, a 2.5 ml 0.9% sodium chloride solution may be added to increase the volume and/or to amend the osmolality to be under 1000 mOsm/kg.
The pH of the gallium-68 labelled PSMA-11 solution was 4.5 immediately after the radiolabelling procedure and was unchanged after 4 hours.
as §1, with “a Gallium-68” for “a gallium-68”, “a” for “a 2.5 ml 0.9%”, “volume of the obtained Gallium-68 labelled PSMA-11 solution” for “volume”, “mOsm/kg. The pH of the gallium-68 labelled PSMA-11 solution was 4.5 immediately after the radiolabelling procedure and was unchanged after 4 hours.” for “mOsm/kg.”
as §1, with “a Gallium-68” for “a gallium-68”, “a” for “a 2.5 ml 0.9%”, “volume of the obtained Gallium-68 labelled PSMA-11 solution” for “volume”, “mOsm/kg. The pH of the gallium-68 labelled PSMA-11 solution was 4.5 immediately after the radiolabelling procedure and was unchanged after 6 hours.” for “mOsm/kg.”
Table 1 to Table 5 show the results of various radiolabelling experiments on radiochemical purity and the chelation yield. The radiolabelling experiments in the tables are carried out as described in: • Example 1 for when the gallium-68 source is GE Liquid target generator and EZAG GalliaPharm generator; • Example 2 for when the gallium-68 source is IRE Galli Eo generator; • Example 3 for when the gallium-68 source is GE solid target generator;
However, the experiments were carried out with the amount of ascorbic acid as indicated in the Tables 1 to 5, and the activity as indicated in the Tables 1 to 5. Radiochemical purities were measured at various times (T0, T1, T4, T6) after the radiolabelled experiments have been conducted.
The kits of Example 1, Example 2 or Example 3, with amounts of ascorbic acid as set out in Table 7 were used in the experiments for the ascorbic acid bracketing matrix. Three strengths of [^68Ga]Ga-PSMA-11 will be tested, i.e. 50 mCi/ml, 7 mCi/ml and 1 mCi/ml. Radiochemical purity was determined at different time points (TO, T1, T4 or T6), as set out in Table 7.

O=C([O-])CN(CCN(CC(=O)[O-])Cc1cc(CCC(=O)NCCCCCC(=O)NCCCC[C@H](NC(=O)N[C@@H](CCC(=O)O)C(=O)O)C(=O)O)ccc1[O-])Cc1cc(CCC(=O)O)ccc1[O-].[68Ga+3].[OH3+] [[^68Ga]PSMA-11, gallium-68 radiolabelled Glu-urea-Lys-HBED-CC (gozetotide or PSMA-11)]
pH (1 mg ascorbic acid, 58.7-71.1 mCi, 7.47-8.99 mCi/mL, GE Liquid target, n=3, T0): C (C = conforms to specifications) | pH (1 mg ascorbic acid, 58.7-71.1 mCi, 7.47-8.99 mCi/mL, GE Liquid target, n=3, T4 (4 h)): C (C = conforms to specifications) | pH (2.5 mg ascorbic acid, 49.9-76.9 mCi, 6.31-9.72 mCi/mL, GE Liquid target, n=3, T0): C (C = conforms to specifications) | pH (2.5 mg ascorbic acid, 49.9-76.9 mCi, 6.31-9.72 mCi/mL, GE Liquid target, n=3, T4 (4 h)): C (C = conforms to specifications) | pH (5 mg ascorbic acid, 60-69.9 mCi, 7.61-8.81 mCi/mL, 3 × GE Liquid Target, 3 × EZAG GalliaPharm, n=6, T0): C (C = conforms to specifications) | pH (5 mg ascorbic acid, 60-69.9 mCi, 7.61-8.81 mCi/mL, 3 × GE Liquid Target, 3 × EZAG GalliaPharm, n=6, T4 (4 h)): C (C = conforms to specifications) | pH (10 mg ascorbic acid, 458-500 mCi, 43.4-47.3 mCi/mL, GE Solid Target, n=3, T0): C (C = conforms to specifications) | pH (10 mg ascorbic acid, 458-500 mCi, 43.4-47.3 mCi/mL, GE Solid Target, n=3, T4 (4 h)): C (C = conforms to specifications) | pH (10 mg ascorbic acid, 514-520 mCi, 49.0-66.1 mCi/mL, GE Solid Target, n=3, T0): C (C = conforms to specifications) | pH (10 mg ascorbic acid, 514-520 mCi, 49.0-66.1 mCi/mL, GE Solid Target, n=3, T6 (6 h)): C (C = conforms to specifications) | pH (15 mg ascorbic acid, 10.0-18.4 mCi, 0.95-1.77 mCi/mL, 1 × EZAG GalliaPharm, 2 × IRE Galli Eo, n=3, T0): C (C = conforms to specifications) | pH (15 mg ascorbic acid, 10.0-18.4 mCi, 0.95-1.77 mCi/mL, 1 × EZAG GalliaPharm, 2 × IRE Galli Eo, n=3, T1 (1 h)): C (C = conforms to specifications) | pH (15 mg ascorbic acid, 23.7-47.6 mCi, 2.26-4.53 mCi/mL, 1 × EZAG GalliaPharm, 2 × IRE Galli Eo, n=3, T0): C (C = conforms to specifications) | pH (15 mg ascorbic acid, 23.7-47.6 mCi, 2.26-4.53 mCi/mL, 1 × EZAG GalliaPharm, 2 × IRE Galli Eo, n=3, T4 (4 h)): C (C = conforms to specifications) | pH (20 mg ascorbic acid, 514-544 mCi, 48.3-51.9 mCi/mL, GE Solid Target, n=2, T0): C (C = conforms to specifications) | pH (20 mg ascorbic acid, 514-544 mCi, 48.3-51.9 mCi/mL, GE Solid Target, n=2, T6 (6 h)): C (C = conforms to specifications) | pH (25 mg ascorbic acid, 10.2 mCi, 0.97 mCi/mL, IRE Galli Eo, n=1, T0): C (C = all results conform to specifications) | pH (25 mg ascorbic acid, 10.2 mCi, 0.97 mCi/mL, IRE Galli Eo, n=1, T1 (1 h)): C (C = all results conform to specifications) | pH (25 mg ascorbic acid, 19.5-20.0 mCi, 1.85-1.90 mCi/mL, EZAG GalliaPharm, n=2, T0): C (C = all results conform to specifications) | pH (25 mg ascorbic acid, 19.5-20.0 mCi, 1.85-1.90 mCi/mL, EZAG GalliaPharm, n=2, T1 (1 h)): C (C = all results conform to specifications) | pH (25 mg ascorbic acid, 23.3-24 mCi, 2.22-2.28 mCi/mL, IRE Galli Eo, n=2, T0): C (C = all results conform to specifications) | pH (25 mg ascorbic acid, 23.3-24 mCi, 2.22-2.28 mCi/mL, IRE Galli Eo, n=2, T4 (4 h)): C (C = all results conform to specifications) | pH (25 mg ascorbic acid, 46.0-46.1 mCi, 4.38-4.39 mCi/mL, EZAG GalliaPharm, n=2, T0): C (C = all results conform to specifications) | pH (25 mg ascorbic acid, 46.0-46.1 mCi, 4.38-4.39 mCi/mL, EZAG GalliaPharm, n=2, T4 (4 h)): C (C = all results conform to specifications) | pH (50 mg ascorbic acid, 560 mCi, 71.1 mCi/mL, GE Solid Target, n=1, T0): C (C = conforms to specifications) | pH (50 mg ascorbic acid, 560 mCi, 71.1 mCi/mL, GE Solid Target, n=1, T6 (6 h)): C (C = conforms to specifications) | pH of the gallium-68 labelled PSMA-11 solution (Example 1 kit (25 mg ascorbic acid; EZAG GalliaPharm or GE Liquid, 60-70 mCi)): 4.5 | pH of the gallium-68 labelled PSMA-11 solution, change (Example 1 kit, after 4 hours): unchanged | pH of the gallium-68 labelled PSMA-11 solution (Example 2 kit (25 mg ascorbic acid; IRE Galli Eo, 60-70 mCi)): 4.5 | pH of the gallium-68 labelled PSMA-11 solution, change (Example 2 kit, after 4 hours): unchanged | pH of the gallium-68 labelled PSMA-11 solution (Example 3 kit (25 mg ascorbic acid; solid target, 350-600 mCi)): 4.5 | pH of the gallium-68 labelled PSMA-11 solution, change (Example 3 kit, after 6 hours): unchanged | pH (bracketing ~1 mCi/mL, 18.75 mg ascorbic acid, 8.9-11.5 mCi, 0.85-1.09 mCi/mL, IRE Galli Eo, n=2, T0): C (C = Conforms to specifications)
